The text below walks through data of PubChem BioAssay AID686957 (The Scripps Research Institute Molecular Screening Center, 2013).

Molecules are shown by their SMILES. Active and inactive are the calls of the source. No rule for the calls is given here.

The target of the test is T-cell receptor (TCR)-CD3 interaction, human (TCR alpha chain TRAV4). The experiment in a line: IC50 for blocking TCR-CD3 binding – biochemical, fluorescence, TAMRA-labeled TCR probe, dose response (AID 686957).
Consider `Cc1onc(-c2ccccc2)c1C(=O)NN=Cc1cc(Cl)cc(Cl)c1O`, for which the IC50 was > 94 µM (inactive).

In the case of `COc1ccc(NC(=O)NNC(=O)c2ccc3ccccc3c2O)cc1OC`, the IC50 was > 94.1 µM (inactive).

For `CC1(C)CC2CC(C)(CN2S(=O)(=O)c2ccc(C(=O)Nc3cccc(S(=O)(=O)N4CCOCC4)c3)cc2)C1` (stereo not drawn), the IC50 entry is “inactive”.

Regarding `Nc1ncnc2oc(-c3ccco3)c(-c3ccco3)c12`, the IC50 result is “inactive”.

Regarding `O=C(CCc1ccc(S(=O)(=O)N2CCOCC2)cc1)N/N=C/c1ccc(O)c(O)c1O`, the IC50 is > 94.1 µM (inactive).

For the compound `O=C(CCN1C(=O)/C(=C\c2ccccc2)SC1=S)NNC(=O)c1ccccc1O`, the IC50 is > 94.1 µM (inactive).

Take `O=C(N/N=C/c1cc(Br)ccc1O)c1cccc(N2CCCC2=O)c1`: the IC50 is > 94.1 µM (inactive).

On to `O=C1COc2ccc(C(=O)COC(=O)/C=C/c3ccc(Br)o3)cc2N1`, for which the IC50 is > 94.1 µM (inactive).

Turning to `CCOC(=O)C1=C(CC)Nc2ccccc2N=C1NC(=O)Nc1ccc(Cl)c(Cl)c1`, the IC50 entry was “inactive”.

For `COc1ccc(CC(=O)N/N=C/c2cc([N+](=O)[O-])cc(Br)c2O)cc1`, the IC50 is > 94.1 µM (inactive).

As for `COc1cccc(/C=C2/SC(=S)N(CC(=O)NNC(=O)c3ccccc3O)C2=O)c1`, the IC50 is > 94.1 µM (inactive).

With `c1coc(-c2ccc3nncn3c2)c1`, the IC50 entry is “inactive”.

`COc1ccc(C(=O)NC(=S)NNC(=O)c2ccc(O)cc2)cc1[N+](=O)[O-]`: the IC50 was > 94.1 µM (inactive).

Take `O=Nc1[nH]c(=O)c(/C=C(\O)c2ccccc2)nc1NO`: the IC50 was > 94.2 µM (inactive).

`CC1CCCC(C)N1/N=C/c1ccc(O)c(O)c1` (stereo not drawn): the IC50 was > 94.1 µM (inactive).

For the compound `O=C(NNC(=S)NC1CCCCC1)c1ccccc1O`, the IC50 was > 94.1 µM (inactive).

With `Cc1noc(C)c1COc1ccc(C(=O)NNC(=O)c2ccccc2O)cc1`, the IC50 was > 94.1 µM (inactive).

Take `O=C(NNC(=O)C1CCN(S(=O)(=O)c2ccccc2C(F)(F)F)CC1)c1ccccc1O`: the IC50 is > 94.1 µM (inactive).

`O=C(NNC(=O)C1CCN(S(=O)(=O)c2ccccc2)CC1)c1ccccc1O`: the IC50 is > 94.1 µM (inactive).

As to `O=C(N/N=C/c1cc(Cl)cc([N+](=O)[O-])c1O)c1ccc2c(c1)OCO2`, the IC50 was > 94.1 µM (inactive).

For the compound `CC(=O)c1cccc(NC(=O)C(OC(=O)c2cccc(S(=O)(=O)N(C)c3ccccc3)c2)c2ccccc2)c1` (stereo not drawn), the IC50 result was “inactive”.

As to `COc1cc2ccccc2cc1C(=O)NNC(=O)c1ccccc1O`, the IC50 was > 94.2 µM (inactive).

Turning to `Cc1ccc(O)c(-c2cc(C(=O)Nc3ccc(S(=O)(=O)Nc4nccc(C)n4)cc3)[nH]n2)c1`, the IC50 was > 94.1 µM (inactive).

For `Cc1cc([N+](=O)[O-])cc(/C=N\NC(=O)C2COc3ccccc3O2)c1O` (stereo not drawn), the IC50 was > 94.2 µM (inactive).

For the compound `COCCNC(=O)Nc1ccc2nc(-c3ccco3)c(-c3ccco3)nc2c1`, the IC50 was > 94.1 µM (inactive).

As to `CCc1n[nH]c(=S)n1/N=C/c1cc(OC)cc([N+](=O)[O-])c1O`, the IC50 result is “inactive”.

As for `COC(=O)Cn1c(=NC(=O)c2cc(-c3cccs3)nc3ccccc23)sc2cc(S(N)(=O)=O)ccc21`, the IC50 was > 10.5 µM (inactive).

Turning to `O=C1C=C(O)c2c(O)cc(O)c(O)c2C1=O`, the IC50 is > 94.1 µM (inactive).

With `O=C(N/N=C/c1cc([N+](=O)[O-])ccc1O)c1cccc(N2CCCC2=O)c1`, the IC50 was > 94.1 µM (inactive).

Turning to `O=C(N/N=C/c1ccc(O)c(O)c1)N/N=C/c1ccc(O)c(O)c1`, the IC50 is 1.03 µM.

On to `Oc1ccc(/C=N/Nc2ncnc3c2ncn3Cc2ccccc2)cc1O`, for which the IC50 was > 94.1 µM (inactive).

For `Cc1ccc(/C=C2\SC(=S)N(CCCC(=O)NNC(=O)c3ccccc3O)C2=O)cc1`, the IC50 is > 94.1 µM (inactive).

As to `O=c1c(O)cccc2cc(O)c(O)c(O)c12`, the IC50 is 4.39 µM.

Broadly, the IC50 is the point on the concentration scale where inhibition reaches its midpoint.
